Biological target: T1, Human GPR120 short form (Homo sapiens, UniProt Q5NUL3)
T1 construct: expressed in transfected cells
T1 sequence (Q5NUL3 1-361): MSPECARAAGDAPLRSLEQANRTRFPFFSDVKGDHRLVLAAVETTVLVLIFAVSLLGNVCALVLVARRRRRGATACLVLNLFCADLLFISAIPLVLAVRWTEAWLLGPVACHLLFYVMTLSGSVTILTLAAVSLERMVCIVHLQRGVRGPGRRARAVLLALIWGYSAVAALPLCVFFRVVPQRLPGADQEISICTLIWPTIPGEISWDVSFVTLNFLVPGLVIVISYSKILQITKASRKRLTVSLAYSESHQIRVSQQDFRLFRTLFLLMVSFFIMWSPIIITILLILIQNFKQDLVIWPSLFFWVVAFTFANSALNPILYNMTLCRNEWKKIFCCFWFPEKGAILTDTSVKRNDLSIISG
Assay: Human GPR120 in Calcium Flux Assay, Procedure Calcium A (2500 cells/well)
Assay type: cell-based
Procedure, shortened: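 HEK293 cells stably expressing GPR120 short isoform, 2500 cells/well, serum-starved 1 h, loaded with Fluo-4 NW plus probenecid (30 min 37 °C, 15 min RT). Compounds prepared at 0.012–100 μM, 0.2% DMSO final. FLIPR calcium signal over 300 s as Fmax−Fmin; EC50 from variable-slope fit (Hill <2).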

Row | EC50 [nM] | Compound
1 | 147 | Cc1c(CCC(=O)O)ccc(OCc2cc(Cl)cc3cc(C=CF)oc23)c1C (mixture of isomers) [Compound 88, 3-(4-((5-Chloro-2-(2-fluorovinyl)benzofuran-7-yl)methoxy)-2,3-dimethylphenyl)propanoic acid]
2 | 20 | Cc1c(CCC(=O)O)ccc(OCc2cc(OC(F)(F)F)cc3cc(C=CF)oc23)c1C (mixture of isomers) [Compound 97, 3-(4-{[2-(2-Fluoroethenyl)-5-(trifluoromethoxy)-1-benzofuran-7-yl]methoxy}-2,3-dimethylphenyl)propanoic acid]
3 | 51 | Cc1cc2cc(F)cc(COc3ccc(CCC(=O)O)c(C)c3C)c2o1 [Compound 2, 3-{4-[(5-Fluoro-2-methyl-1-benzofuran-7-yl)methoxy]-2,3-dimethylphenyl}propanoic acid]
4 | 58 | CCc1cc2cc(F)cc(COc3ccc(CCC(=O)O)c(C)c3C)c2o1 [Compound 3, 3-{4-[(2-Ethyl-5-fluoro-1-benzofuran-7-yl)methoxy]-2,3-dimethylphenyl}propanoic acid]
5 | 279 | Cc1c(CCC(=O)O)ccc(OCc2cc(F)cc3cc(C(F)(F)F)oc23)c1C [Compound 4, 3-(4-{[5-Fluoro-2-(trifluoromethyl)-1-benzofuran-7-yl]methoxy}-2,3-dimethylphenyl)propanoic acid]
6 | 1240 | Cc1oc2c(COc3ccc(CCC(=O)O)c(C)c3C)cc(F)cc2c1F [Compound 5, 3-{4-[(3,5-Difluoro-2-methyl-1-benzofuran-7-yl)methoxy]-2,3-dimethylphenyl}propanoic acid]
7 | 124 | Cc1c(CCC(=O)O)ccc(OCc2cc(Cl)cc3cnn(C)c23)c1C [Compound 7, 3-{4-[(5-Chloro-1-methyl-1H-indazol-7-yl)methoxy]-2,3-dimethylphenyl}propanoic acid]
8 | 297 | Cc1c(CCC(=O)O)ccc(OCc2cc(Cl)cc3cn(C)nc23)c1C [Compound 8, 3-{4-[(5-Chloro-2-methyl-2H-indazol-7-yl)methoxy]-2,3-dimethylphenyl}propanoic acid]
9 | 23 | CCc1cc2cc(Cl)cc(COc3ccc(CCC(=O)O)c(C)c3C)c2o1 [Compound 11, 3-{4-[(5-Chloro-2-ethyl-1-benzofuran-7-yl)methoxy]-2,3-dimethylphenyl}propanoic acid]
10 | 39 | CCc1cc2cc(OC(F)(F)F)cc(COc3ccc(CCC(=O)O)c(C)c3C)c2o1 [Compound 12, 3-(4-{[2-Ethyl-5-(trifluoromethoxy)-1-benzofuran-7-yl]methoxy}-2,3-dimethylphenyl)propanoic acid]
11 | 345 | CCc1cc2cc(F)cc(COc3c(F)cc(CCC(=O)O)cc3F)c2o1 [Compound 17, 3-{4-[(2-Ethyl-5-fluoro-1-benzofuran-7-yl)methoxy]-3,5-difluorophenyl}propanoic acid]
12 | 653 | Cc1c(CCC(=O)O)ccc(OCc2cc(F)cc3cc(C4CCCC4)oc23)c1C [Compound 18, 3-{4-[(2-Cyclopentyl-5-fluoro-1-benzofuran-7-yl)methoxy]-2,3-dimethylphenyl}propanoic acid]
13 | 159 | COCc1cc2cc(F)cc(COc3ccc(CCC(=O)O)c(C)c3C)c2o1 [Compound 21, 3-(4-{[5-Fluoro-2-(methoxymethyl)-1-benzofuran-7-yl]methoxy}-2,3-dimethylphenyl)propanoic acid]
14 | 166 | Cc1c(CCC(=O)O)ccc(OCc2cc(F)cc3cc(C(C)C)oc23)c1C [Compound 22, 3-(4-{[5-Fluoro-2-(1-methylethyl)-1-benzofuran-7-yl]methoxy}-2,3-dimethylphenyl)propanoic acid]
15 | 339 | Cc1c(CCC(=O)O)ccc(OCc2cc(F)cc3cc(CC(C)C)oc23)c1C [Compound 23, 3-(4-{[5-Fluoro-2-(2-methylpropyl)-1-benzofuran-7-yl]methoxy}-2,3-dimethylphenyl)propanoic acid]
16 | 107 | CCOc1cc(COc2ccc(CCC(=O)O)c(C)c2C)c2oc(CC)cc2c1 [Compound 29, 3-{4-[(5-Ethoxy-2-ethyl-1-benzofuran-7-yl)methoxy]-2,3-dimethylphenyl}propanoic acid]
17 | 44 | CCCc1cc2cc(Cl)cc(COc3ccc(CCC(=O)O)c(C)c3C)c2o1 [Compound 31, 3-{4-[(5-Chloro-2-propyl-1-benzofuran-7-yl)methoxy]-2,3-dimethylphenyl}propanoic acid]
18 | 277 | Cc1c(CCC(=O)O)ccc(OCc2cc(F)cc3cc(C(F)F)oc23)c1C [Compound 32, 3-(4-{[2-(Difluoromethyl)-5-fluoro-1-benzofuran-7-yl]methoxy}-2,3-dimethylphenyl)propanoic acid]

Row | EC50 [nM] | Compound
19 | 40 | CCCc1cc2cc(OC(F)(F)F)cc(COc3ccc(CCC(=O)O)c(C)c3C)c2o1 [Compound 35, 3-(2,3-Dimethyl-4-{[2-propyl-5-(trifluoromethoxy)-1-benzofuran-7-yl]methoxy}phenyl)propanoic acid]
20 | 10 | Cc1cc2cc(OC(F)(F)F)cc(COc3ccc(CCC(=O)O)c(C)c3C)c2o1 [Compound 36, 3-(2,3-Dimethyl-4-{[2-methyl-5-(trifluoromethoxy)-1-benzofuran-7-yl]methoxy}phenyl)propanoic acid]
21 | 43 | CCCc1cc2cc(C(F)(F)F)cc(COc3ccc(CCC(=O)O)c(C)c3C)c2o1 [Compound 37, 3-(2,3-Dimethyl-4-{[2-propyl-5-(trifluoromethyl)-1-benzofuran-7-yl]methoxy}phenyl)propanoic acid]
22 | 34 | CCc1cc2cc(Cl)c(C)c(COc3ccc(CCC(=O)O)c(C)c3C)c2o1 [Compound 40, 3-{4-[(5-Chloro-2-ethyl-6-methyl-1-benzofuran-7-yl)methoxy]-2,3-dimethylphenyl}propanoic acid]
23 | 291 | CCCc1cc2cc(Cl)cc(COc3ccc(CCC(=O)O)c(C)c3C#N)c2o1 [Compound 41, 3-{4-[(5-Chloro-2-propyl-1-benzofuran-7-yl)methoxy]-3-cyano-2-methylphenyl}propanoic acid]
24 | 27 | CCc1cc2cc(Cl)c(OC)c(COc3ccc(CCC(=O)O)c(C)c3C)c2o1 [Compound 44, 3-{4-[(5-Chloro-2-ethyl-6-methoxy-1-benzofuran-7-yl)methoxy]-2,3-dimethylphenyl}propanoic acid]
25 | 24 | CCc1cc2cc(Br)cc(COc3ccc(CCC(=O)O)c(C)c3C)c2o1 [Compound 45, 3-{4-[(5-Bromo-2-ethyl-1-benzofuran-7-yl)methoxy]-2,3-dimethylphenyl}propanoic acid]
26 | 22 | CCCc1cc2cc(I)cc(COc3ccc(CCC(=O)O)c(C)c3C)c2o1 [Compound 47, 3-{4-[(5-Iodo-2-propyl-1-benzofuran-7-yl)methoxy]-2,3-dimethylphenyl}propanoic acid]
27 | 237 | Cc1c(CCC(=O)O)ccc(OCc2cc(F)cc3cc(C#N)oc23)c1C [Compound 49, 3-{4-[(2-Cyano-5-fluoro-1-benzofuran-7-yl)methoxy]-2,3-dimethylphenyl}propanoic acid]
28 | 59 | CCCc1cc(OCc2cc(OC(F)(F)F)cc3cc(CC)oc23)c(F)cc1CCC(=O)O [Compound 50, 3-(4-{[2-Ethyl-5-(trifluoromethoxy)-1-benzofuran-7-yl]methoxy}-5-fluoro-2-propylphenyl)propanoic acid]
29 | 29 | CCc1cc2cc(OC(F)(F)F)cc(COc3ccc(CCC(=O)O)c4c3CCC4)c2o1 [Compound 52, 3-(7-{[2-Ethyl-5-(trifluoromethoxy)-1-benzofuran-7-yl]methoxy}-2,3-dihydro-1H-inden-4-yl)propanoic acid]
30 | 36 | CCc1cc2cc(Cl)cc(COc3ccc(CCC(=O)O)c4c3CCC4)c2o1 [Compound 54, 3-{7-[(5-Chloro-2-ethyl-1-benzofuran-7-yl)methoxy]-2,3-dihydro-1H-inden-4-yl}propanoic acid]
31 | 28 | Cc1cc2cc(OC(F)(F)F)cc(COc3ccc(CCC(=O)O)c4c3CCC4)c2o1 [Compound 55, 3-(7-{[2-Methyl-5-(trifluoromethoxy)-1-benzofuran-7-yl]methoxy}-2,3-dihydro-1H-inden-4-yl)propanoic acid]
32 | 17 | CCc1cc2cc(OC(F)F)cc(COc3ccc(CCC(=O)O)c(C)c3C)c2o1 [Compound 57, 3-(4-{[5-(Difluoromethoxy)-2-ethyl-1-benzofuran-7-yl]methoxy}-2,3-dimethylphenyl)propanoic acid]
33 | 87 | CC#Cc1cc(COc2ccc(CCC(=O)O)c(C)c2C)c2oc(CCC)cc2c1 [Compound 58, 3-{2,3-Dimethyl-4-[(2-propyl-5-prop-1-yn-1-yl-1-benzofuran-7-yl)methoxy]phenyl}propanoic acid]
34 | 93 | CCCc1cc2cc(Cl)cc(COc3ccc(CCC(=O)O)c(F)c3F)c2o1 [Compound 59, 3-{4-[(5-Chloro-2-propyl-1-benzofuran-7-yl)methoxy]-2,3-difluorophenyl}propanoic acid]
35 | 162 | Cc1oc2cccc(COc3ccc(CCC(=O)O)c(C)c3C)c2c1C [Compound 60, 3-{4-[(2,3-Dimethyl-1-benzofuran-4-yl)methoxy]-2,3-dimethylphenyl}propanoic acid]
36 | 24 | CCc1cc2cc(Cl)c(CC)c(COc3ccc(CCC(=O)O)c(C)c3C)c2o1 [Compound 61, 3-{4-[(5-Chloro-2,6-diethyl-1-benzofuran-7-yl)methoxy]-2,3-dimethylphenyl}propanoic acid]
